The compounds below were run against T1, NEDD8-activating enzyme (NAE) (Homo sapiens, UniProt Q8TBC4) (assay: cell-free Ubc12-NEDD8 conjugation assay, western blot).
T1 construct: gene UBA3; recombinant human NAE (APPBP1/UBA3 heterodimer); with APPBP1 (NAE1)
T1 sequence (Q8TBC4 2-463): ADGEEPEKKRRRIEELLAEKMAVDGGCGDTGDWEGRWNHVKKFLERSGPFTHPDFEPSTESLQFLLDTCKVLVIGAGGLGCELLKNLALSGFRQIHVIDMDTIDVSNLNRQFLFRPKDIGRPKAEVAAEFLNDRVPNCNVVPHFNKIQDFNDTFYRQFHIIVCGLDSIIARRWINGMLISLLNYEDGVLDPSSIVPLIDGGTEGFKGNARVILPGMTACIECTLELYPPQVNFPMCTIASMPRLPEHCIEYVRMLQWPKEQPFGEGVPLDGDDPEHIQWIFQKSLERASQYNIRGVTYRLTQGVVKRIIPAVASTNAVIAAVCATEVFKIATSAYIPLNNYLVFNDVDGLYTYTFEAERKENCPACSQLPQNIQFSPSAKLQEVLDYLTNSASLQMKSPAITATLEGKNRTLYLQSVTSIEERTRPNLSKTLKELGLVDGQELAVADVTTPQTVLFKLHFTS
T1 sequence (Q13564 2-534 partner): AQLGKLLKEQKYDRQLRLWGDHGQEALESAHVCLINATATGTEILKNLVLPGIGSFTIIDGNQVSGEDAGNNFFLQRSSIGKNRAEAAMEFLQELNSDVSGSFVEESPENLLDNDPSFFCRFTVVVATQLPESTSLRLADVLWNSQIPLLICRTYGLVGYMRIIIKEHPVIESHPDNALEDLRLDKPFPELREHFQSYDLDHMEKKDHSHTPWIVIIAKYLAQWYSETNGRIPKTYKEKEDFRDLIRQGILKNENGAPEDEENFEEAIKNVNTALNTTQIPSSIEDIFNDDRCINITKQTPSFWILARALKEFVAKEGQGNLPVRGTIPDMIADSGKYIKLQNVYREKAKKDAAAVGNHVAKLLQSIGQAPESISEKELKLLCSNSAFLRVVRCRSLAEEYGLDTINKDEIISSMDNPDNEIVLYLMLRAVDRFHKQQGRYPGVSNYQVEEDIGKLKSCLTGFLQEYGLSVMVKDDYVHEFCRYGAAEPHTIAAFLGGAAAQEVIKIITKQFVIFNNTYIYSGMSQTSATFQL
Type: biochemical

**Q.** How did the IC50 turn out when `Cc1cc2nc3c4ccc[n+]5c4c4c(ccc[n+]4[Rh-3]546([c]5ccccc5-c5cccc[n+]54)[c]4ccccc4-c4cccc[n+]46)c3nc2cc1C` [compound 2, complex 2] was run?
**A.** Its IC50 is about 6.25 µM.

**Q.** `c1cc[c]2c(c1)-c1cccc[n+]1[Rh-3]213([c]2ccccc2-c2cccc[n+]21)[n+]1cccc2c4nc5ccccc5nc4c4ccc[n+]3c4c21` [compound 1, [Rh(ppy)2(dppz)]^+] was tested. Which IC50 did it give?
**A.** Its IC50 is about 1.5 µM.

**Q.** How did the IC50 turn out when `Cc1cc2nc3c4ccc[n+]5c4c4c(ccc[n+]4[Rh-3]546([c]5cc(C=O)ccc5-c5cccc[n+]54)[c]4cc(C=O)ccc4-c4cccc[n+]46)c3nc2cc1C` [compound 3, complex 3] was run?
**A.** The IC50 was about 6.25 µM.

**Q.** With `O=Cc1ccc2[c](c1)[Rh-3]13([c]4cc(C=O)ccc4-c4cccc[n+]41)([n+]1ccccc1-2)[n+]1cccc2c4nc5ccc([N+](=O)[O-])cc5nc4c4ccc[n+]3c4c21` [compound 4, complex 4] as the compound, how does the IC50 read?
**A.** The IC50 was about 13 µM.

Reference: PMC3501507, “A Metal-Based Inhibitor of NEDD8-Activating Enzyme” (PLoS ONE, 2012)
